Experimental data published in patent US20110288176A1, “[…] ACID-CONTAINING COMPOSITION FOR PREVENTION OR TREATMENT OF […]-RELATED DISEASES AND METHOD FOR PREVENTION OR TREATMENT OF […]-RELATED DISEASES USING THE SAME” (priority 2008, published 2011).

Biological target: T1, Transglutaminase 2 (Cavia cutleri, UniProt P08587)
T1 construct: purchased Sigma-Aldrich T5398
T1 sequence (P08587 1-690): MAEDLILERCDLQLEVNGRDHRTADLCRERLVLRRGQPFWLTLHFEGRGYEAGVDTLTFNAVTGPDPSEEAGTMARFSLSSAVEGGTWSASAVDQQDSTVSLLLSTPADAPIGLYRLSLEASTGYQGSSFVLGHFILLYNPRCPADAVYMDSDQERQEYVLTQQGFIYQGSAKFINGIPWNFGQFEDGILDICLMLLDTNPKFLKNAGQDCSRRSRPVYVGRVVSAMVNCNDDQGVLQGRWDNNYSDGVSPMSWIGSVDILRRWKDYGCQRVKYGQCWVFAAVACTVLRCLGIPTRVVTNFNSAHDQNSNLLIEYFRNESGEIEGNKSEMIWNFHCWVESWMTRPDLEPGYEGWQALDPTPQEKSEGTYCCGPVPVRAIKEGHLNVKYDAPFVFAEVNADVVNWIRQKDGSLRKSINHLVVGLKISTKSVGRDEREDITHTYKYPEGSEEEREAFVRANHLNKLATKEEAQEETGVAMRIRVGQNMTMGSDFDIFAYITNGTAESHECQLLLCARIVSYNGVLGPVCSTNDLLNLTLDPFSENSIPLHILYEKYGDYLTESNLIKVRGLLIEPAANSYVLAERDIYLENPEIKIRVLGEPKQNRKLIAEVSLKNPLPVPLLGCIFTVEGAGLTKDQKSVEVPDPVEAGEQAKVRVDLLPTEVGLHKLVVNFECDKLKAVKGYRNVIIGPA
Test: In vitro assay for inhibition of transglutaminase activity ([1,4-14C]putrescine incorporation into succinylated casein)
Type: biochemical
Settings: for activity of transglutaminase, Mean: mean of three assays
Method: Succinylated casein was purchased from Calbiochem (Cat. No. 573464), and 1 g of the powder was dissolved in 50 ml of a reaction buffer solution containing 5 mM DTT (0.1 M Tris-acetate (pH 8.0), 10 mM CaCl2, 0.15 M NaCl, 1.0 mM EDTA). This solution was stored in a deep freezer for further use. [1,4-^14C] Putrescine dihydrochloride was purchased from GE Healthcare (Cat. No. CFA301), and the stock solution was diluted with distilled water to yield a radiological dose of 5 μCi/ml. Transglutaminase 2 was purchased from Sigma-Aldrich (Cat. No. T5398), and diluted with distilled water to yield a final concentration of 1 unit/ml.
450 μl of succinylated casein solution and 50 μl of [1,4-^14C] putrescine dihydrochloride solution were mixed together to prepare a substrate solution. […] 500 μl of the substrate solution β and 100 μl of sample solution were mixed well, and the mixture was incubated at 37° C. for 2 hrs, before termination with 4.5 ml of cold (4° C.) 7.5% TCA. The final solution was stored at 4° C. for 1 hr. The TCA-protein precipitates were filtered through a GF/glass fiber filter, washed with 25 ml of cold 5% TCA, and dried.

[1] = 5 μM ethacrynic acid, relative to DMSO control (=1.0000)
[2] = 10 μM ethacrynic acid, relative to DMSO control (=1.0000)
[3] = 25 μM ethacrynic acid, relative to DMSO control (=1.0000)
[4] = 50 μM ethacrynic acid, relative to DMSO control (=1.0000)

C=C(CC)C(=O)c1ccc(OCC(=O)O)c(Cl)c1Cl [ethacrynic acid, 2-[2,3-dichloro-4-(2-methylidenebuanoyl)phenoxy]acetic acid]
activity of transglutaminase, Mean [1]: 0.4796
activity of transglutaminase, Assay 1 (5 μM ethacrynic acid, radioactivity of cross-linked protein relative to DMSO control (=1.0000)): 0.5667
activity of transglutaminase, Assay 2 [1]: 0.4572
activity of transglutaminase, Assay 3 [1]: 0.4148
activity of transglutaminase, Mean [2]: 0.3752
activity of transglutaminase, Assay 1 [2]: 0.4319
activity of transglutaminase, Assay 2 [2]: 0.3654
activity of transglutaminase, Assay 3 [2]: 0.3281
activity of transglutaminase, Mean [3]: 0.1935
activity of transglutaminase, Assay 1 [3]: 0.2337
activity of transglutaminase, Assay 2 [3]: 0.1812
activity of transglutaminase, Assay 3 [3]: 0.1656
activity of transglutaminase, Mean [4]: 0.0736
activity of transglutaminase, Assay 1 [4]: 0.0763
activity of transglutaminase, Assay 2 [4]: 0.0799
activity of transglutaminase, Assay 3 [4]: 0.0645
inhibition of transglutaminase activity (in words) (FIG. 1): inhibited in an ethacrynic acid concentration-dependent manner
